Like-named read-outs stand apart in the source and are kept apart here.
Columns and labels:
[1] = test system: K. pneumoniae NVT1001 and its ΔompK35/36 and/or ΔramR mutants; experiment: Etest MIC, OmpK35/36 loss and AcrAB-TolC overexpression (ΔramR) strains (Table 6); assay type: cell-based, Klebsiella pneumoniae; conditions: Klebsiella pneumoniae
Procedure, shortened: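 Ceftazidime and cefotaxime were tested by CLSI broth microdilution on the blaOXA-48 pACYC177 transformant of NVT1001, using CLSI 2017 breakpoints. Parent, porin-deleted (ΔompK35/36) and ΔramR strains were tested by Etest, with values between two-fold dilutions rounded up.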

[2] = test system: K. pneumoniae NVT1001 strains with aminoglycoside resistance plasmids; experiment: Etest MIC of aminoglycosides, aminoglycoside-modifying enzyme or 16S rRNA methylase (Table 13); assay type: cell-based, Klebsiella pneumoniae; conditions: for effects on the MIC / resistance: production of 16S rRNA methylase, ArmA and RmtB
Method: (§1) DNA fragments of the resistance genes along with their flanking regions were amplified from clinical plasmids via PCR with specific primer pairs. The resulting PCR fragments were digested and then cloned into the plasmid pACYC177 or pACYC184. The resulting plasmids were then transformed into K. pneumoniae strain NVT1001 via electroporation. The recombinant bacteria were plated onto LB agar plates containing kanamycin (50 mg/L) or chloramphenicol (50 mg/L), and the presence of the cloned gene was confirmed via PCR and DNA sequencing.
(§2) The MICs of antibiotics were determined using the Etest (Biodisk AB, Sweden) according to the manufacturer's instructions. The MICs from the Etest, which fall between standard two-fold dilutions, were rounded up to the next highest two-fold value. The MICs of ceftazidime and cefotaxime against K. pneumoniae NVT1001 harbouring the pACYC177 plasmid with blaOXA-48 were further determined using a broth microdilution test according to the recommendations of the CLSI,^25 and the results were interpreted according to the breakpoints established by the CLSI in 2017.^25 Meanwhile, due to the lack of CLSI breakpoints in 2016 and 2017, the results for cephalothin were interpreted according to the breakpoints established by the CLSI in 2015,^26 and the results for moxifloxacin were interpreted according to the breakpoints established by the EUCAST in 2017.^27

[3] = test system: A. baumannii KW1 strains with aminoglycoside resistance plasmids; experiment: Etest MIC of aminoglycosides, aminoglycoside-modifying enzyme or 16S rRNA methylase (Table 19); assay type: cell-based, Acinetobacter baumannii; conditions: for effects on the MIC: production of aminoglycoside-modifying enzymes; for effects on the MIC / resistance: production of 16S rRNA methylase, ArmA
Method: (§3) DNA fragments of the resistance genes along with their flanking regions were amplified from clinical plasmids via PCR with specific primer pairs. The resulting PCR fragments were digested and then cloned into the plasmid pYMAb5 or pYMAb5Tc. The resulting plasmids were then transformed into A. baumannii KW1 via electroporation.
as §2

[4] = test system: K. pneumoniae NVT1001 and ΔramR strains with tet resistance gene plasmids; experiment: Etest MIC of tetracyclines, AcrAB-TolC overexpression (ΔramR) and/or tet resistance gene (Table 14); assay type: cell-based, Klebsiella pneumoniae; conditions: Klebsiella pneumoniae
Method: as §1, §2

[5] = test system: K. pneumoniae NVT1001 ΔramRΔompK35/36 mutant and its revertants; experiment: Etest MIC, ΔramRΔompK35/36 mutant and its revertants (Table 7); assay type: cell-based; conditions: Klebsiella pneumoniae
[6] = test system: A. baumannii KW1 strains with tet resistance gene plasmids; experiment: Etest MIC of tetracyclines, tet resistance gene (Table 20); assay type: cell-based, Acinetobacter baumannii; conditions: for MIC: Acinetobacter baumannii
Method: as §3, §2

[7] = ΔramRΔ35/36, ΔramRΔompK35/36 mutant
[8] = NVT1001, no supplemental plasmid
[9] = NVT1001 with AAC(3)-IId on pACYC184
[10] = NVT1001 with AAC(3)-IVa on pACYC184
[11] = NVT1001 with AAC(6′)-Ib-cr on pACYC184
[12] = NVT1001 with ANT(2″)-Ia on pACYC184
[13] = NVT1001 with ANT(3″)-Ia on pACYC184
[14] = NVT1001 with APH(3′)-IIa on pACYC184
[15] = NVT1001 with APH(3′)-Ia on pACYC184
[16] = NVT1001 with StrA-StrB on pACYC184
[17] = KW1 with AAC(3)-IIa on pYMAb5Tc
[18] = KW1 with ANT(2”)-Ia on pYMAb5Tc
[19] = KW1 with ANT(3”)-Ia on pYMAb5Tc
[20] = KW1 with APH(3')-Ia on pYMAb5Tc
[21] = KW1 with APH(3')-VIa on pYMAb5Tc
[22] = KW1 with shuttle vector pYMAb5Tc

NCC[C@H](O)C(=O)N[C@@H]1C[C@H](N)[C@@H](O[C@H]2O[C@H](CN)[C@@H](O)[C@H](O)[C@H]2O)[C@H](O)[C@H]1O[C@H]1O[C@H](CO)[C@@H](O)[C@H](N)[C@H]1O [Amikacin]
susceptible: susceptibility category ([2]; strains with different aminoglycoside-modifying enzymes)
2 µg/mL: MIC ([1]; WT, NVT1001, read-out: MIC) | MIC ([1]; Δ35, ΔompK35 mutant) | MIC ([1]; Δ35/36, ΔompK35/36 mutant) | MIC ([1]; Δ36, ΔompK36 mutant) | MIC ([1]; ΔramR mutant) | MIC ([1]; ΔramRΔ35, ΔramRΔompK35 mutant) | MIC [1, 7] | MIC ([1]; ΔramRΔ36, ΔramRΔompK36 mutant)
no increase effects: effects on the MIC [3]

C[C@H]1c2cccc(O)c2C(=O)C2=C(O)[C@]3(O)C(=O)C(C(N)=O)=C(O)[C@@H](N(C)C)[C@@H]3[C@@H](O)[C@@H]21 [Doxycycline, doxycycline]
4 fold: increase in the MIC ([6]; production of Tet(A), Tet(B) or Tet(C))
12 µg/mL: MIC ([6]; KW1, Tet(A) on pYMAb5)
256 µg/mL: MIC ([4]; ΔramR, Tet(D) on pACYC177)
192 µg/mL: MIC ([6]; KW1, Tet(M) on pYMAb5)
16 µg/mL: MIC ([4]; NVT1001, Tet(C) on pACYC177, read-out: MIC)
0.75 µg/mL: MIC ([6]; KW1, no supplemental plasmid) | MIC ([6]; KW1 with shuttle vector pYMAb5)
128 µg/mL: MIC ([4]; NVT1001, Tet(D) on pACYC177, read-out: MIC) | MIC ([4]; ΔramR, Tet(C) on pACYC177) | MIC ([4]; ΔramR, Tet(M) on pACYC177) | MIC [1, 7] | MIC ([5]; ΔramRΔompK35/36 mutant)
64 µg/mL: MIC ([4]; ΔramR, no supplemental plasmid) | MIC ([1]; ΔramR mutant) | MIC ([1]; ΔramRΔ35, ΔramRΔompK35 mutant) | MIC ([1]; ΔramRΔ36, ΔramRΔompK36 mutant) | MIC ([5]; ΔramRΔompK35/36::ompK35/36 revertant) | MIC ([5]; ΔramRΔompK35/36::ompK35 revertant) | MIC ([5]; ΔramRΔompK35/36::ompK36 revertant)
32 µg/mL: MIC ([4]; NVT1001, Tet(M) on pACYC177, read-out: MIC) | MIC ([6]; KW1, Tet(B) on pYMAb5)
4 µg/mL: MIC ([4]; NVT1001, no supplemental plasmid, read-out: MIC) | MIC ([1]; WT, NVT1001, read-out: MIC) | MIC ([1]; Δ35, ΔompK35 mutant) | MIC ([1]; Δ35/36, ΔompK35/36 mutant) | MIC ([1]; Δ36, ΔompK36 mutant) | MIC ([5]; ΔramRΔompK35/36::ramR revertant) | MIC ([5]; ΔramRΔompK35/36::ramR::ompK35/36 revertant) | MIC ([5]; ΔramRΔompK35/36::ramR::ompK35 revertant) | MIC ([5]; ΔramRΔompK35/36::ramR::ompK36 revertant)
> 256 µg/mL: MIC ([4]; NVT1001, Tet(A) on pACYC177, read-out: MIC) | MIC ([4]; NVT1001, Tet(B) on pACYC177, read-out: MIC) | MIC ([4]; ΔramR, Tet(A) on pACYC177) | MIC ([4]; ΔramR, Tet(B) on pACYC177)

CN[C@@H]1[C@H](O[C@H]2[C@H](O[C@H]3[C@H](O)[C@@H](O)[C@H](N=C(N)N)[C@@H](O)[C@@H]3N=C(N)N)O[C@@H](C)[C@]2(O)C=O)O[C@@H](CO)[C@H](O)[C@H]1O [STR]
2 µg/mL: MIC [2, 8] | MIC [2, 9] | MIC [2, 10] | MIC [2, 11] | MIC [2, 12] | MIC [2, 14] | MIC [2, 15] | MIC ([2]; NVT1001 with ArmA on pACYC184) | MIC ([2]; NVT1001 with RmtB on pACYC184)
1024 µg/mL: MIC [2, 16]
16 µg/mL: MIC [2, 13]
8 µg/mL: MIC [3, 17] | MIC [3, 18] | MIC [3, 19] | MIC ([3]; KW1 with ArmA on pYMAb5Tc)
12 µg/mL: MIC ([3]; KW1, no supplemental plasmid) | MIC [3, 20] | MIC [3, 21] | MIC [3, 22]

CN[C@@H]1[C@H](O)[C@H](NC)[C@H]2O[C@@]3(O)C(=O)C[C@@H](C)O[C@H]3O[C@@H]2[C@H]1O [Spectinomycin]
16 µg/mL: MIC ([1]; WT, NVT1001, read-out: MIC) | MIC ([1]; Δ35, ΔompK35 mutant) | MIC ([1]; Δ35/36, ΔompK35/36 mutant) | MIC ([1]; Δ36, ΔompK36 mutant) | MIC ([1]; ΔramR mutant) | MIC ([1]; ΔramRΔ35, ΔramRΔompK35 mutant) | MIC [1, 7] | MIC ([1]; ΔramRΔ36, ΔramRΔompK36 mutant)
not associated with increase effects: effects on the MIC / resistance [3]
not associated with observable effects: effects on the MIC / resistance [2]

[H]/N=C(/N)N[C@H]1[C@H](O)[C@@H](O)[C@H](O[C@@H]2O[C@@H](C)[C@](O)(C=O)[C@H]2O[C@@H]2O[C@@H](CO)[C@H](O)[C@@H](O)[C@@H]2NC)[C@@H](N/C(N)=N\[H])[C@@H]1O [Streptomycin]
2 µg/mL: MIC ([1]; WT, NVT1001, read-out: MIC) | MIC ([1]; ΔramR mutant) | MIC ([1]; ΔramRΔ35, ΔramRΔompK35 mutant)
not associated with increase effects: effects on the MIC / resistance [3]
not associated with observable effects: effects on the MIC / resistance [2]
4 µg/mL: MIC ([1]; Δ35, ΔompK35 mutant) | MIC ([1]; Δ35/36, ΔompK35/36 mutant) | MIC ([1]; Δ36, ΔompK36 mutant) | MIC [1, 7] | MIC ([1]; ΔramRΔ36, ΔramRΔompK36 mutant)
no increase effects: effects on the MIC [3]

NC[C@H]1O[C@H](O[C@H]2[C@H](O)[C@@H](O[C@H]3O[C@H](CO)[C@@H](O)[C@H](N)[C@H]3O)[C@H](N)C[C@@H]2N)[C@H](N)C[C@@H]1O [TOB]
2 µg/mL: MIC [3, 18]
64 µg/mL: MIC [2, 12]
4 µg/mL: MIC [2, 9]
>256 µg/mL: MIC [2, 10] | MIC ([2]; NVT1001 with ArmA on pACYC184) | MIC ([2]; NVT1001 with RmtB on pACYC184) | MIC ([3]; KW1 with ArmA on pYMAb5Tc)
8 µg/mL: MIC [2, 11]
1 µg/mL: MIC [2, 15]
0.5 µg/mL: MIC [2, 8] | MIC [2, 13] | MIC [2, 14] | MIC [2, 16] | MIC ([3]; KW1, no supplemental plasmid) | MIC [3, 17] | MIC [3, 19] | MIC [3, 20] | MIC [3, 21] | MIC [3, 22]

— patent publication US10760110B2, “Antibiotic testing and screening system” (priority 2017, dated 2020)
